Measurements published in patent publication US20250041302A1, “PROLYL HYDROXYLASE DOMAIN INHIBITOR FOR TREATING HEMORRHAGIC OR BURN SHOCK” (THE GOVERNMENT OF THE UNITED STATES, AS REPRESENTED BY THE …, priority 2022, published 2025).
Entries after “also recorded” stand apart in the source; their conditions may differ.

Assays:
[1] = test system: rats with polytrauma and hemorrhagic shock; test: Oral PHDi prior to polytrauma/hemorrhage, pilot study (FIG. 3); format: in vivo, Sprague-Dawley rats
Experimental: FIG. 3. The effect of PHDi prior to polytrauma/hemorrhage on lactate level. PHDi (MK-8617, 1 mg/kg) or vehicle was orally applied in rats prior to trauma (n=3-4/group). The lactate in whole blood samples were collected at baseline (BSL), shed hemorrhage blood (HEM), 2- and 4 hours after trauma and measured by iSTAT. […] Values represent as means±SEM.
PHDi (MK-8617, 500 microgram per rat) was orally applied prior to trauma, and the lactate (measured by iSTAT) was measured at baseline, 2 and 4 hours after trauma.
Model-1, acute sub-lethal hemorrhagic shock with polytrauma (40% hemorrhage, fast speed hemorrhage at >1 ml/min, target MAP at 35-40 mmHg for 30 min): This model has intensive tissue damage and transient compensated hemorrhagic shock, and the animals survived for 4 hours after trauma without resuscitation or any intervention. The death occurs after 4 hours after trauma.
Briefly, Sprague-Dawley rats (350-450 gram) were anesthetized with isoflurane/100% oxygen through a nosecone and allowed to breathe spontaneously. Cannulas were placed in the left femoral artery and vein for measurement of arterial blood pressure and to obtain vascular access (blood draw and resuscitation and drug administration) respectively. Polytrauma was induced by laparotomy, crush injury to the small intestines, the left and medial liver lobes, and the right leg skeletal muscle and by fracture of the right femur. In detail, a midline incision was made through the abdominal skin and underlying muscle layers. A 10-cm section of small intestines was isolated just anterior to the cecum and run gently through a clamp covered with silastic tubing with a 2-mm distance between the clamps to cause a gentle crush injury. The right and medial lobes of the liver will receive three crushes to each lobe using the same clamp. The intestines and liver were replaced, and the abdominal incision was closed with sutures in two layers. To fracture the […], a modification of a 3-point impact device was used by dropping six stainless-steel balls (65 g each) stacked together, from 36 inches through a guide tube (1 inch internal diameter) to impact on a rounded aluminum blade resting on the mid-right femur with the right leg resting on two aluminum stands, one under the hip and one under the knee. A large hemostat (5 in tongs) was used to clamp the muscle of the right leg 10 times. The crush injury was intended to cause microvascular damage, as opposed to cutting, chopping, or mincing of the tissue, which would have led to uncontrolled hemorrhage. The polytrauma was performed about 10 min followed immediately by hemorrhage. […]
The lactate in whole blood samples were collected at baseline (BSL), shed hemorrhage blood (HEM), 2- and 4 hours after trauma, and the lactate was measured by iSTAT. […]

[2] = test system: polytrauma/hemorrhage rodent model; test: Intravenous PHDi at 20 min after polytrauma/hemorrhage (FIG. 6); format: in vivo, rat
Experimental: FIG. 6. The effect of intravenous administration of PHDi after polytrauma/hemorrhage. PHDi (MK-8617, 1 mg/kg, n=8) or vehicle (n=7) was administered intravenously at 20 min after trauma. (FIG. 6A) Mean arterial pressure (MAP); (FIG. 6B) Lactate (hyperlactatemia); (FIG. 6C) Prothrombin time (PT, acute traumatic coagulopathy); and (FIG. 6D) Fibrinogen level.
PHDi (MK-8617, 1 mg/ml in 500 μL of 5% DMSO, 10% PEG 400, and 85% normal saline, average dose 1.26±0.05 mg/kg, n=8), or vehicle (n=7) was administered intravenously at 20 min after trauma. The surviving animals were euthanized 4 hours after trauma.

COc1ccc(C(NC(=O)c2cnc(-c3cccnn3)nc2O)c2ccc(OC)cc2)cc1 [MK-8617, N-[Bis(4-methoxyphenyl)methyl]-4-hydroxy-2-(pyridazin-3-yl)pyrimidine-5-carboxamide]
average levels of lactate attenuated as compared with vehicle ([1]; 2 and 4 hr after trauma, oral prior to trauma): about 30%
survival ([1]; 4 hours after trauma): all animals survived after 4 hours
lactate in whole blood (iSTAT) ([1]; 4 hours after trauma, MK-8617 1 mg/kg orally prior to trauma, n=4): 2.365 ± 0.733 mmol/L
rise of lactate ([1]; oral MK-8617 1 mg/kg prior to trauma, 1 mg/kg): attenuated the rise of lactate; also recorded: mitigating the elevation of lactate; also recorded: attenuates lactate levels
mean arterial pressure (MAP) compared with vehicle ([2]; after treatment, MK-8617 i.v. 1.26±0.05 mg/kg at 20 min after trauma, n=8): significantly higher
reduction in the elevation of lactate as compared with vehicle ([2]; at 60 min, i.v. at 20 min after trauma): about 30%
prothrombin time (PT, acute traumatic coagulopathy) ([2]; i.v. at 20 min after trauma): reduced the prolongation of prothrombin time
